The results in this text go back to PubChem BioAssay (NCI).

Test systems include SNB-75 CNS; SW-620 colon; HCC-2998 colon; NCI-H460 lung; NCI-H522 lung; OVCAR-8 ovarian; A498 renal; DU-145 prostate; T-47D breast; UACC-257 melanoma.
Common to all, as to assay: inhibition of tumour cell growth, NCI panel, 48 h

The structures appear in SMILES notation.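 Growth conditions: 96-well plates. Treatment: test compound, 48 hours, 5 concentrations. Analysis: linear interpolation between bracketing concentrations; unreached endpoints set to highest concentration. The concentration for 50% growth inhibition is given as GI50. TGI: total growth inhibition.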 Some results are limits rather than exact numbers.

For the compound `COC(=O)Nc1nc2ccc(Oc3ccc(NC(=O)Nc4cccc(C(=O)O)c4)cc3)cc2[nH]1`, the GI50 in the experiment on SNB-75 CNS was 9.98 µM; with SW-620 colon, 7.43 µM; with HCC-2998 colon, 8.44 µM; in the experiment on NCI-H460 lung it was 7.21 µM; with NCI-H522 lung, 4 µM; with OVCAR-8 ovarian it was 9.4 µM. Further, the GI50 in the experiment with A498 renal was 4.98 µM; in the experiment with DU-145 prostate, 8.07 µM; in the experiment on T-47D breast, over 14.2 µM; in the experiment on UACC-257 melanoma, over 22.2 µM. For the same compound, the TGI is over 25 µM with SNB-75 CNS; over 25 µM in the experiment on SW-620 colon; over 25 µM in the experiment on HCC-2998 colon; over 25 µM in the experiment with NCI-H460 lung; over 19 µM in the experiment with NCI-H522 lung; over 25 µM with OVCAR-8 ovarian. For the same compound, the TGI in the experiment on A498 renal, in the experiment with DU-145 prostate, in the experiment on T-47D breast and with UACC-257 melanoma was over 25 µM throughout.

`C/C=C(\C)C(=O)N[C@H]1CC[C@]2(C)C3CC[C@@]4(C)C(CC[C@@H]4C(C)N(C)C)C3CCC2[C@H]1OC(C)=O` (stereo not given in full): the GI50 is 1.65 µM in the experiment on SNB-75 CNS; 1.53 µM in the experiment on SW-620 colon; 1.56 µM with HCC-2998 colon; 0.923 µM in the experiment on NCI-H460 lung; 2.14 µM in the experiment with NCI-H522 lung; 3.38 µM with OVCAR-8 ovarian. In addition, the GI50 is 1.43 µM in the experiment with A498 renal, 2.85 µM in the experiment on DU-145 prostate, 1.74 µM in the experiment with T-47D breast and 2.12 µM in the experiment with UACC-257 melanoma. Besides, the TGI in the experiment with SNB-75 CNS is 3.59 µM; with SW-620 colon, 3.05 µM; in the experiment with HCC-2998 colon, 2.97 µM; with NCI-H460 lung it was 2.26 µM; in the experiment with NCI-H522 lung, 5.24 µM; in the experiment on OVCAR-8 ovarian, over 25.8 µM. The TGI in the experiment on A498 renal was 3.51 µM; with DU-145 prostate it was 10.9 µM; in the experiment on T-47D breast it was 5.42 µM; with UACC-257 melanoma it was 4.16 µM.

`COc1ccc2c(c1)C(=O)/C(=C/c1cccc(OCC(=O)Nc3nc4c(s3)CCCC4)c1)O2`: the GI50 was 1.75 µM in the experiment with SNB-75 CNS; 0.805 µM in the experiment with SW-620 colon; 1.83 µM with HCC-2998 colon; 3.48 µM in the experiment on NCI-H460 lung; 0.704 µM with NCI-H522 lung; 1.3 µM in the experiment on OVCAR-8 ovarian. Besides, the GI50 with A498 renal is 14.3 µM; with DU-145 prostate it was 0.499 µM; in the experiment on T-47D breast it was 1.93 µM; with UACC-257 melanoma, 11.2 µM. The TGI with SNB-75 CNS was determined as 12 µM; in the experiment with SW-620 colon it was 2.07 µM; in the experiment on HCC-2998 colon, 3.44 µM; in the experiment with NCI-H460 lung, 13.4 µM; in the experiment with NCI-H522 lung, 2.25 µM; with OVCAR-8 ovarian, 8.71 µM. For the same compound, the TGI came to 27.7 µM in the experiment on A498 renal, 1.22 µM with DU-145 prostate, 4.34 µM with T-47D breast and 24.4 µM in the experiment with UACC-257 melanoma.

Regarding `Oc1ccc2cc(Br)ccc2c1-c1c(O)ccc2cc(Br)ccc12`, the GI50 with SNB-75 CNS was 3.15 µM; in the experiment on SW-620 colon, 2.64 µM; in the experiment on HCC-2998 colon, 2.22 µM; with NCI-H460 lung it was 3.76 µM; in the experiment with NCI-H522 lung, 1.98 µM; in the experiment with OVCAR-8 ovarian, 3.9 µM. Moreover, the GI50 in the experiment on A498 renal was 2.95 µM; in the experiment with DU-145 prostate, 3.29 µM; with T-47D breast, 4.61 µM; in the experiment on UACC-257 melanoma, 10.1 µM. In addition, the TGI in the experiment on SNB-75 CNS stood at 13.9 µM; with SW-620 colon, 7.41 µM; in the experiment with HCC-2998 colon, 4.8 µM; in the experiment with NCI-H460 lung, 15 µM; in the experiment on NCI-H522 lung it was 4.53 µM; with OVCAR-8 ovarian, 15.4 µM. The TGI was determined as 10.3 µM in the experiment on A498 renal, 9.34 µM in the experiment with DU-145 prostate, 17.3 µM in the experiment with T-47D breast and 22.6 µM in the experiment with UACC-257 melanoma.
